Drawing on ChEMBL document CHEMBL2073840, “Inhibitory effects of a cyclosporin derivative, SDZ PSC 833, on transport of doxorubicin and vinblastine via human P-glycoprotein” (Jpn J Cancer Res, 1998), this text covers Activity for two molecules.

The series concerns the target ATP-dependent translocase ABCB1 (Homo sapiens, UniProt P08183). The series is described as follows: TP_TRANSPORTER: transepithelial transport (basal to apical) in MDR1-expressing LLC-PK1 cells. Conditions: pig. It is filed as functional, cell-based.

Chain of ATP-dependent translocase ABCB1 (P08183 whole entry): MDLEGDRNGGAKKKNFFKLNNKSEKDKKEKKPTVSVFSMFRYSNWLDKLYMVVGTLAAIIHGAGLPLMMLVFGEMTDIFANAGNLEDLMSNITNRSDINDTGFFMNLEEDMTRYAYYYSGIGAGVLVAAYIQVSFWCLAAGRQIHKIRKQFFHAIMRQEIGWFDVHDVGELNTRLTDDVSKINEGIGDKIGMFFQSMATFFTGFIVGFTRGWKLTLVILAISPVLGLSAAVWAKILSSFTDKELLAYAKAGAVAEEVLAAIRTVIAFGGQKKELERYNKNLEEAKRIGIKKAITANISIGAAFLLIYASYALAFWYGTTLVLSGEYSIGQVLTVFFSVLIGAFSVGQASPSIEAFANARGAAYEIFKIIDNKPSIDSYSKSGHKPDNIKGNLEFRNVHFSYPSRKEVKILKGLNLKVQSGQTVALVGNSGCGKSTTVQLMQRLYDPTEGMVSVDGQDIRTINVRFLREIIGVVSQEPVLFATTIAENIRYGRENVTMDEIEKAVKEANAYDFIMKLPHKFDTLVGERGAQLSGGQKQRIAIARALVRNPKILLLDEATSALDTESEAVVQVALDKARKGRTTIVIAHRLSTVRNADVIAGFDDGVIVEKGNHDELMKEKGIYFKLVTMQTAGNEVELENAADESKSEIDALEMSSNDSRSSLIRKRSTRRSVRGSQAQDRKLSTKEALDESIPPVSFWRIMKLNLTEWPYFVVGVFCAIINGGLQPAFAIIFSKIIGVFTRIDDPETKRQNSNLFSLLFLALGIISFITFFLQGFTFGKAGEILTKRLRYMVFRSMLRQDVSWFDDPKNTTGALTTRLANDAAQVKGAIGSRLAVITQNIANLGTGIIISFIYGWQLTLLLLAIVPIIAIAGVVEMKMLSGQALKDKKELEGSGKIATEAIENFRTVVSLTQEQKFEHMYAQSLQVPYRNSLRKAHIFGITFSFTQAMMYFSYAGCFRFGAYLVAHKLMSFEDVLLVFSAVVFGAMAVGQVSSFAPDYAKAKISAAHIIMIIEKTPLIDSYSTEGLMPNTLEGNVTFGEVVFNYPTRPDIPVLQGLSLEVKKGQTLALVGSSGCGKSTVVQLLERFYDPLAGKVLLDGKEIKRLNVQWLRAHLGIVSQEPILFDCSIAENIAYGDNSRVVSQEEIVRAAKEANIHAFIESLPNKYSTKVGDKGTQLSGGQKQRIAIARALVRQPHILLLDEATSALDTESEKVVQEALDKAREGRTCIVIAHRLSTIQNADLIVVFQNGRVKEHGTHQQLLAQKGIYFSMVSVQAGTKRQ

Take `COc1cccc2c1C(=O)c1c(O)c3c(c(O)c1C2=O)C[C@@](O)(C(=O)CO)C[C@@H]3O[C@H]1C[C@H](N)[C@H](O)[C@H](C)O1` [DOXORUBICIN]: the Activity entry was “substrate [+]”.

In the case of `C/C=C/C[C@@H](C)C(=O)[C@H]1C(=O)N[C@@H](C(C)C)C(=O)N(C)CC(=O)N(C)[C@@H](CC(C)C)C(=O)N[C@@H](C(C)C)C(=O)N(C)[C@@H](CC(C)C)C(=O)N[C@@H](C)C(=O)N[C@H](C)C(=O)N(C)[C@@H](CC(C)C)C(=O)N(C)[C@@H](CC(C)C)C(=O)N(C)[C@@H](C(C)C)C(=O)N1C` [VALSPODAR], the Activity entry is “is not a substrate [-]”.
